Data from patent US12240862B2, “Inhibitors of peptidylarginine deiminases” (Gilead Sciences, Inc., priority 2020, dated 2025).

These compounds were tested against T1, human PAD4 (Homo sapiens, UniProt Q9UM07) (assay: In vitro PAD4 BAEE biochemical assay). Settings: human PAD4, BAEE substrate; 5 nM PAD4, 2 mM calcium chloride, 3 mM BAEE; geometric mean of multiple experiments.
T1 construct: human PAD4 (NM_012387), A2P663, was PCR amplified; His-SUMO (N, cleaved yes); made in house; host or cells: E. coli BL21(DE3)
T1 sequence (Q9UM07 2-663): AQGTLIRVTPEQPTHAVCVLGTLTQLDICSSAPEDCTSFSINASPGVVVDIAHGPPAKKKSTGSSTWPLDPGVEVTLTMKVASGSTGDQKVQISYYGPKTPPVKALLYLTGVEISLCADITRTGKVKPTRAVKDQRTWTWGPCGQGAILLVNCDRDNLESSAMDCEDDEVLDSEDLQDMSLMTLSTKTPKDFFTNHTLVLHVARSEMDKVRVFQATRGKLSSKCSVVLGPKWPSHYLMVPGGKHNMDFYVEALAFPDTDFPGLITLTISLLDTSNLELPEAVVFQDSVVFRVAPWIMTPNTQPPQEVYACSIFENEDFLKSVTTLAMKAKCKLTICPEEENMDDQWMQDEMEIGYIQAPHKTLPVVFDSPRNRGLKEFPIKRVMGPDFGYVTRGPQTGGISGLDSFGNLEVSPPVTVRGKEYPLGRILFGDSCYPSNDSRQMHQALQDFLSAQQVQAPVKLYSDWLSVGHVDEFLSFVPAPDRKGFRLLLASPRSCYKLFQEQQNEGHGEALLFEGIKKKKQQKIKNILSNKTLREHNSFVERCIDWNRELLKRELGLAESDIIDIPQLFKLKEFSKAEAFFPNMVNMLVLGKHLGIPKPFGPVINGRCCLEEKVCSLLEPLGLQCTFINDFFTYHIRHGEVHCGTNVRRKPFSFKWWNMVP
Method in brief: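 Tag-free recombinant hPAD4 (5 nM), 2 mM CaCl2, 3 mM BAEE, 50 mM MOPS pH 7.6, 2 mM DTT; 30 min compound preincubation, 2 h reaction, all 25 °C. EDTA quench; ammonia read via o-phthalaldehyde amine coupling, 1 h.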

Point of comparison: `COc1cc(C(=O)N2[C@H]3CC[C@@H]2[C@H](N)C3)cc2nc(-c3cc4ccc([C@@H](C)NC(C)=O)nc4n3CC3CC3)c(C3CC3)n12` [Example 178, ~{N}-[(1~{R})-1-[2-[7-[(1~{R},2~{R},4~{S})-2-amino-7-azabicyclo[2.2.1]heptane-7-carbonyl]-3-cyclopropyl-5-methoxyimidazo [1,2-a]pyridin-2-yl]-1-(cyclopropylmethyl)pyrrolo [2,3-b]pyridin-6-yl]ethyl] acetamide], IC50 89.4 nM. Against it:
- COc1cc(C(=O)N2[C@H]3CC[C@@H]2[C@H](N)C3)cc2nc(-c3cc4ccc([C@@H](C)NC(=O)C5(C)COC5)nc4n3CC3CC3)c(C)n12 [Example 166, ~{N}-[(1~{R})-1-[2-[7-[(1~{R},2~{R},4~{S})-2-amino-7-azabicyclo[2.2.1]heptane-7-carbonyl]-5-methoxy-3-methylimidazo [1,2-a]pyridin-2-yl]-1-(cyclopropylmethyl)pyrrolo [2,3-b]pyridin-6-yl]ethyl]-3-methyloxetane-3-carboxamide] — 1.6-fold lower, 56 nM
- COc1cc(C(=O)N2C[C@H]3C[C@H](C)[C@@H]2[C@@H]3N)cc2nc(-c3cc4ccc([C@@H](C)NC(=O)C(C)(C)C)nc4n3CC3CC3)c(C)n12 [Example 167, N-((R)-1-(2-(7-((1R,4R,6S,7R)-7-amino-6-methyl-2-azabicyclo[2.2.1]heptane-2-carbonyl)-5-methoxy-3-methylimidazo [1,2-a]pyridin-2-yl)-1-(cyclopropylmethyl)-1H-pyrrolo [2,3-b]pyridin-6-yl)ethyl) pivalamide] — 30-fold higher, 2700 nM
- COc1cc(C(=O)N2[C@H]3CC[C@@H]2[C@H](N)C3)cc2nc(-c3cc4ccc(C(C)(C)NC(=O)C(C)(C)C)nc4n3CC3CC3)c(C)n12 [Example 168, ~{N}-[2-[2-[7-[(1~{R},2~{R},4~{S})-2-amino-7-azabicyclo[2.2.1]heptane-7-carbonyl]-5-methoxy-3-methylimidazo [1,2-a]pyridin-2-yl]-1-(cyclopropylmethyl)pyrrolo [2,3-b]pyridin-6-yl]propan-2-yl]-2,2-dimethylpropanamide] — 1.9-fold higher, 171 nM
- COc1cc(C(=O)N2[C@H]3CC[C@@H]2[C@H](N)C3)cc2nc(-c3cc4ccc([C@@H](C)NC(=O)C56CC(F)(C5)C6)nc4n3CC3CC3)c(C)n12 [Example 169, N—((R)-1-(2-(7-((1R,2R,4S)-2-amino-7-azabicyclo[2.2.1]heptane-7-carbonyl)-5-methoxy-3-methylimidazo[1,2-a]pyridin-2-yl)-1-(cyclopropylmethyl)-1H-pyrrolo[2,3-b]pyridin-6-yl)ethyl)-3-fluorobicyclo[1.1.1]pentane-1-carboxamide] — within 1.5-fold, 68.5 nM
- COc1cc(C(=O)N2[C@@H]3CC[C@@H](N)[C@H]2CC3)cc2nc(-c3cc4ccc([C@@H](C)NC(=O)C(C)(C)C)nc4n3CC3CC3)c(C)n12 [Example 170, ~{N}-[(1~{R})-1-[2-[7-[(1~{R},2~{R},5~{R})-2-amino-8-azabicyclo[3.2.1]octane-8-carbonyl]-5-methoxy-3-methylimidazo [1,2-a]pyridin-2-yl]-1-(cyclopropylmethyl)pyrrolo [2,3-b]pyridin-6-yl]ethyl]-2,2-dimethylpropanamide] — 1.8-fold higher, 161 nM
- COc1cc(C(=O)N2[C@H]3CC[C@@H]2[C@H](N)C3)cc2nc(-c3cc4ccc([C@@H](C)NC(=O)C(C)(C)C(F)(F)F)nc4n3CC3CC3)c(C)n12 [Example 171, ~{N}-[(1~{R})-1-[2-[7-[(1~{R},2~{R},4~{S})-2-amino-7-azabicyclo[2.2.1]heptane-7-carbonyl]-5-methoxy-3-methylimidazo [1,2-a]pyridin-2-yl]-1-(cyclopropylmethyl)pyrrolo [2,3-b]pyridin-6-yl]ethyl]-3,3,3-trifluoro-2,2-dimethylpropanamide] — 2-fold higher, 179 nM
- COc1cc(C(=O)N2[C@H]3CC[C@@H]2[C@H](N)C3)cc2nc(-c3cc4ccc([C@@H](C)NC(=O)C(C)(C)OC)nc4n3CC3CC3)c(C)n12 [Example 172, ~{N}-[(1~{R})-1-[2-[7-[(1~{R},2~{R},4~{S})-2-amino-7-azabicyclo[2.2.1]heptane-7-carbonyl]-5-methoxy-3-methylimidazo [1,2-a]pyridin-2-yl]-1-(cyclopropylmethyl)pyrrolo [2,3-b]pyridin-6-yl]ethyl]-2-methoxy-2-methylpropanamide] — within 1.5-fold, 98.3 nM
- COc1cc(C(=O)N2C[C@H]3C[C@H](O)[C@@H]2[C@@H]3N)cc2nc(-c3cc4ccc([C@@H](C)NC(=O)C(C)(C)C)nc4n3CC3CC3)c(C)n12 [Example 173, N-((R)-1-(2-(7-((1S,4R,6S,7R)-7-amino-6-hydroxy-2-azabicyclo [2.2.1]heptane-2-carbonyl)-5-methoxy-3-methylimidazo [1,2-a]pyridin-2-yl)-1-(cyclopropylmethyl)-1H-pyrrolo[2,3-b]pyridin-6-yl)ethyl)pivalamide] — 5.6-fold higher, 497 nM
- COc1cc(C(=O)N2C[C@H]3CC[C@@H]2[C@@H]3N)cc2nc(-c3cc4ccc([C@@H](C)NC(=O)C(C)(C)C)nc4n3CC3CC3)c(C)n12 [Example 174, N-((R)-1-(2-(7-((1R,4R,7R)-7-amino-2-azabicyclo[2.2.1]heptane-2-carbonyl)-5-methoxy-3-methylimidazo[1,2-a]pyridin-2-yl)-1-(cyclopropylmethyl)-1H-pyrrolo [2,3-b]pyridin-6-yl)ethyl) pivalamide] — 3.3-fold higher, 297 nM
- COc1cc(C(=O)N2[C@H]3CC[C@@H]2[C@H](N)C3)cc2nc(-c3cc4ccc([C@@H](C)NC(=O)c5ccccn5)nc4n3CC3CC3)c(C)n12 [Example 175, ~{N}-[(1~{R})-1-[2-[7-[(1~{R},2~{R},4~{S})-2-amino-7-azabicyclo[2.2.1]heptane-7-carbonyl]-5-methoxy-3-methylimidazo [1,2-a]pyridin-2-yl]-1-(cyclopropylmethyl)pyrrolo [2,3-b]pyridin-6-yl]ethyl]pyridine-2-carboxamide] — 2-fold higher, 181 nM
- COc1cc(C(=O)N2[C@H]3CC[C@@H]2[C@H](N)C3)cc2nc(-c3cc4ccc([C@@H](C)NC(=O)c5ccccc5)nc4n3CC3CC3)c(C)n12 [Example 176] — within 1.5-fold, 88.7 nM
- COc1cc(C(=O)N2[C@H]3CC[C@@H]2[C@H](N)C3)cc2nc(-c3cc4ccc([C@@H](C)NC(=O)C(C)(C)C)nc4n3CC3CC3)c(C)n12 [Example 177, N—((R)-1-(2-(7-((1R,2R,4S)-2-amino-7-azabicyclo[2.2.1]heptane-7-carbonyl)-5-methoxy-3-methylimidazo[1,2-a]pyridin-2-yl)-1-(cyclopropylmethyl)-1H-pyrrolo[2,3-b]pyridin-6-yl)ethyl)pivalamide] — within 1.5-fold, 76.3 nM
- COc1cc(C(=O)N2[C@H]3CC[C@@H]2[C@H](N)C3)cc2nc(-c3cc4ccc([C@@H](C)NC(C)=O)nc4n3CC3CC3)c(C)n12 [Example 179, ~{N}-[(1~{R})-1-[2-[7-[(1~{R},2~{R},4~{S})-2-amino-7-azabicyclo[2.2.1]heptane-7-carbonyl]-5-methoxy-3-methylimidazo [1,2-a]pyridin-2-yl]-1-(cyclopropylmethyl)pyrrolo [2,3-b]pyridin-6-yl]ethyl] acetamide] — within 1.5-fold, 85 nM
- COc1cc(C(=O)N2CC[C@H]3CCCN[C@H]3C2)cc2nc(-c3cc4ccc([C@@H](C)NC(=O)C56CC(F)(C5)C6)nc4n3CC3CC3)c(C)n12 [Example 180, ~{N}-[(1~{R})-1-[2-[7-[(4~{a}~{R},8~{a}~{R})-2,3,4,4~{a},5,6,8,8~{a}-octahydro-1~{H}-1,7-naphthyridine-7-carbonyl]-5-methoxy-3-methylimidazo [1,2-a]pyridin-2-yl]-1-(cyclopropylmethyl)pyrrolo [2,3-b]pyridin-6-yl]ethyl]-3-fluorobicyclo[1.1.1]pentane-1-carboxamide] — 5.5-fold higher, 494 nM
- COc1cc(C(=O)N2CC[C@@H]3CCCN[C@@H]3C2)cc2nc(-c3cc4ccc([C@@H](C)NC(=O)C56CC(F)(C5)C6)nc4n3CC3CC3)c(C)n12 [Example 181, ~{N}-[(1~{R})-1-[2-[7-[(4~{a}~{S},8~{a}~{S})-2,3,4,4~{a},5,6,8,8~{a}-octahydro-1~{H}-1,7-naphthyridine-7-carbonyl]-5-methoxy-3-methylimidazo [1,2-a]pyridin-2-yl]-1-(cyclopropylmethyl)pyrrolo [2,3-b]pyridin-6-yl]ethyl]-3-fluorobicyclo[1.1.1]pentane-1-carboxamide] — 120-fold higher, 10500 nM
- COc1cc(C(=O)N2[C@@H]3CC[C@H]2[C@@H](N)[C@@H](OC)C3)cc2nc(-c3cc4ccc([C@@H](C)NC(=O)C56CC(F)(C5)C6)nc4n3CC3CC3)c(C)n12 [Example 182] — 15-fold higher, 1360 nM
- COc1cc(C(=O)N2[C@H]3CC[C@@H]2[C@H](N)[C@H](OC)C3)cc2nc(-c3cc4ccc([C@@H](C)NC(=O)C56CC(F)(C5)C6)nc4n3CC3CC3)c(C)n12 [Example 183, ~{N}-[(1~{R})-1-[2-[7-[(1~{R},2~{S},3~{R}, 5~{S})-2-amino-3-methoxy-8-azabicyclo [3.2.1]octane-8-carbonyl]-5-methoxy-3-methylimidazo [1,2-a]pyridin-2-yl]-1-(cyclopropylmethyl)pyrrolo [2,3-b]pyridin-6-yl]ethyl]-3-fluorobicyclo[1.1.1]pentane-1-carboxamide] — 2.7-fold higher, 237 nM
- COc1cc(C(=O)N(C)C)cc2nc(-c3cc4ccc([C@@H](C)N(C)C(=O)c5ccccc5)nc4n3CC3CC3)c(C)n12 [Example 184, 2-[6-[(1~{R})-1-[benzoyl (methyl)amino]ethyl]-1-(cyclopropylmethyl)pyrrolo [2,3-b]pyridin-2-yl]-5-methoxy-~{N},~{N},3-trimethylimidazo[1,2-a] pyridine-7-carboxamide] — 200-fold higher, 17700 nM
- COc1cc(C(=O)N2[C@H]3CC[C@@H]2[C@H](N)C3)cc2nc(-c3cc4ccc([C@@H](C)N(C)C(=O)c5ccccc5)nc4n3CC3CC3)c(C)n12 [Example 185, ~{N}-[(1~{R})-1-[2-[7-[(1~{R},2~{R},4~{S})-2-amino-7-azabicyclo[2.2.1]heptane-7-carbonyl]-5-methoxy-3-methylimidazo [1,2-a]pyridin-2-yl]-1-(cyclopropylmethyl)pyrrolo [2,3-b]pyridin-6-yl]ethyl]-~{N}-methylbenzamide] — 1.6-fold higher, 139 nM
